The text below walks through data of ChEMBL document CHEMBL1201862, “PubChem BioAssay data set” (2004).

A short description of test [1]: HGIII-sPLA2 enzyme inhibition potency – biochemical, QFRET, IC50, dose response (AID 743457).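 Note: green fluorescence rise as the enzyme cleaves BODIPY PC-A2 in liposomes.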
Test [2] can be described thus: cells. In kind it is functional, cell-based.
The nature of test [3]: cells. The test is classed as functional, cell-based. The source holds these as a separate data set.
The target of test [4] is Prothrombin (Homo sapiens, UniProt P00734). Description: Thrombin 1536 HTS Dose Response Confirmation. [Related pubchem assays: 1046 (Thrombin 1536 HTS; hits were confirmed in this assay)]. In kind it is functional.
Test [5] deals with T1, DNA repair and recombination protein RAD54-like (Homo sapiens, UniProt Q92698).
T1 sequence (Q92698 whole entry): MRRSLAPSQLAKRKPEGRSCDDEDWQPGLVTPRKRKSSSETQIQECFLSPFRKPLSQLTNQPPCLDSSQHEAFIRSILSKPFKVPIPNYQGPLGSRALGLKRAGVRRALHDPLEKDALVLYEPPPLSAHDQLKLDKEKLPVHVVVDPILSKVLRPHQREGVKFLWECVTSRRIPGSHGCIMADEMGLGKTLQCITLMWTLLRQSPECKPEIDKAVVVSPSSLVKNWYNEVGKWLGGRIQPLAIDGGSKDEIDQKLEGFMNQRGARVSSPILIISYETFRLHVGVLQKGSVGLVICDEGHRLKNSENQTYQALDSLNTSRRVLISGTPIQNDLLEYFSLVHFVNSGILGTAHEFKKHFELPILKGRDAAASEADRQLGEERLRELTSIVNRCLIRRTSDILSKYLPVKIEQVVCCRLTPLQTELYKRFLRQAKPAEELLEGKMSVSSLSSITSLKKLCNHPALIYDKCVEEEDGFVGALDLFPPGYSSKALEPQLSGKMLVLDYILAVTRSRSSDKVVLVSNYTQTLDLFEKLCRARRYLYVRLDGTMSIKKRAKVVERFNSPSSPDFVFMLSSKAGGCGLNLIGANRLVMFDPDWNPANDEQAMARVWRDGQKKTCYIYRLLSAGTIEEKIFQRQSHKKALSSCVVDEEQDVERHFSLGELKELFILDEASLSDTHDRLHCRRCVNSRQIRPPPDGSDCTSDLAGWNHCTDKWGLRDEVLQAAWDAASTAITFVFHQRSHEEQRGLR
Briefly: RAD54 Holliday junction migration blockers – biochemical, fluorescence, cherry-picked samples, dose series, confirmation (AID 651657). In kind it is functional.

Test [6] deals with T2, DNA repair protein RAD52 homolog (Homo sapiens, UniProt P43351).
T2 sequence (P43351 whole entry): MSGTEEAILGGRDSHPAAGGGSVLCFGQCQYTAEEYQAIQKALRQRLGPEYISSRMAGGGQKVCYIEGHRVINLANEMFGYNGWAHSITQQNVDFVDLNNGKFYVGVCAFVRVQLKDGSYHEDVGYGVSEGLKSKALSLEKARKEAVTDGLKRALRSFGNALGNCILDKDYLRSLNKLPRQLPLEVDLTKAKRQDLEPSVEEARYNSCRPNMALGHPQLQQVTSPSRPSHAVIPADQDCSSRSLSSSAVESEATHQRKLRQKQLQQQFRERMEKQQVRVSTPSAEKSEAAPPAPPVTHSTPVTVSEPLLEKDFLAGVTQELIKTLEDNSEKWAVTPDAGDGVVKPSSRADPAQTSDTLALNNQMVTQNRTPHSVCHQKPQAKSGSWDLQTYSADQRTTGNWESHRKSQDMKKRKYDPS
In kind it is functional, biochemical.

The target of test [7] is Mitogen-activated protein kinase 10 (Homo sapiens, UniProt P53779). Briefly: Dose response biochemical screening assay for inhibitors of c-Jun N-Terminal Kinase 3 (JNK3). [Related pubchem assays: 746 ].
The nature of test [8]: blockers of HIV-1 envelope-mediated cell-cell fusion – cherry-pick, dose response (AID 652057). The test is classed as functional, cell-based.
Test [9] in a line: viability loss in CEM21 cells – cell-based, CellTiter-Glo luminescence, cherry-picked, cytotoxicity control for viral fusion inhibitor project, dose response (AID 652042).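 Note: potency for signal decrease meaning cytotoxicity.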 In kind it is functional. A general note: ATP-based viability assays read luminescence as a measure of living cells.
Test [10] in a line: blockers of HIV-1 ZM109 envelope-driven cell-cell fusion – HeLa effector, CEM target cells, luciferase, cherry-pick, dose response (AID 652058).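 Note: luciferase signal from HIV-1 Env mediated cell-cell fusion of effector and target cells.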 In kind it is functional, cell-based.
Test [11] is described as follows: off-target signal loss in HeLa-CEM21 co-culture – HeLa F-luc CTL cells, cherry-picked, counter-screen for HIV-1 Env fusion inhibitor project, dose response (AID 652040).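 Note: potency for signal decrease marking cytotoxic or nonspecific inhibition.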 The test is classed as functional, cell-based.
Test [12] is described as follows: HIV-1 AD8 envelope cell-cell fusion blockers – cherry-pick, dose response (AID 652062).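 Note: luciferase signal from cell-cell fusion driven by HIV-1 clade B AD8 Env; potency is for inhibitors of fusion seen as a drop in luminescence.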 In kind it is functional, cell-based.
Test [13] in a line: viability inhibitors of stage V gametocytes – luminescence, dose response (AID 1117278).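 Note: gametocytes exposed to compound for 24 hours.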 In kind it is functional, cell-based.
Test [14] in a line: viability loss in human Jurkat cells – cell-based, luminescence, cytotoxicity control for P. falciparum gametocyte viability project, dose response (AID 1117277).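 Note: potency reflects loss of cellular ATP meaning fewer viable cells.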 The test is classed as functional.
Test [15] is described as follows: viability of uninfected HEp-2 cells – cell-based, HTS, cytotoxicity control for RSV inhibitor project, dose response (AID 2410). To be noted: human respiratory syncytial virus. The test is classed as functional.
The nature of test [16]: luciferase reporter signal suppression in cells – H4 neuroglioma cells, luminescence, dose response (AID 1990). In kind it is functional, cell-based. (In a reporter assay the amount or activity of a reporter protein is the signal.)
A short description of test [17]: Luminescence Cell-Based Dose Response HTS to Identify Inhibitors of 5'UTR Stem-Loop Driven Prion Protein mRNA Translation in H4 Neuroglioblastoma Cells. [Related pubchem assays: 1827 (Project Summary), 1813 (Primary HTS)]. In kind it is functional.
Test [18] in a line: alpha-synuclein stem-loop luciferase translation blockers – H4 neuroglioma cells, luminescence, confirmation (AID 1988). In kind it is functional, cell-based.
A short description of test [19]: Trypanosoma cruzi growth suppression in host cells – NIH3T3 host cells, beta-gal luminescence, confirmation (AID 2044).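 Note: intracellular parasites grown in NIH/3T3 mouse fibroblasts as host cells; luminescent beta-galactosidase reporter signal from transgenic T. cruzi replicating inside host cells; inhibitors lower the luminescence signal.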 In kind it is functional, cell-based.
Test [20] can be described thus: NIH3T3 cell viability loss – ATP luminescence, mouse fibroblasts, counter-screen, dose response (AID 2010).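 Note: cells exposed to compound for about 90 hours before reading.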 The test is classed as functional, cell-based. Background: A counterscreen serves to expose hits that act by an unwanted route or on another target.
Test [21] is described as follows: cells. In kind it is functional, cell-based. This is another data set of the same source.
Test [22] deals with T3, Nuclear receptor subfamily 0 group B member 1 (Homo sapiens, UniProt P51843).
T3 sequence (P51843 whole entry): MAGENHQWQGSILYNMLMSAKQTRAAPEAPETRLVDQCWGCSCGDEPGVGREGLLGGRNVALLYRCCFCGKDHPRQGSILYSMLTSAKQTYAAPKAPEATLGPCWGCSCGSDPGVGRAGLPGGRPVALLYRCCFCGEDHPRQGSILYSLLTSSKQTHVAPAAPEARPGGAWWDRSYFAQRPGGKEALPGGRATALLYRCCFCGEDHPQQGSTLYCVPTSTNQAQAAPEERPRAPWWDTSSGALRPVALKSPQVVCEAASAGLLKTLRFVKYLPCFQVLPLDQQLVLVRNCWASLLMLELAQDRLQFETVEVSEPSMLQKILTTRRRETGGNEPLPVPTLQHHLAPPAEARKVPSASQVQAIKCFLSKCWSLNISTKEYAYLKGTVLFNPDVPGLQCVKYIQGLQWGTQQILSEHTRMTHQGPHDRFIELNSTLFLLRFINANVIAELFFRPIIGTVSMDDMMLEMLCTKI
The test is classed as functional, cell-based.

Test [23] addresses Paired box protein Pax-8 (Homo sapiens, UniProt Q06710). Briefly: PAX8 transcriptional activity inhibition in RMG-I – RMG-I cells, luciferase, cherry-pick, dose response (AID 687027).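 Note: luciferase reporter driven by Pax8 target thyroperoxidase promoter measured by SteadyGlo luminescence.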 The test is classed as functional, cell-based.

Calls of active or inactive are those of the source.

Sequence of Mitogen-activated protein kinase 10 (P53779 whole entry, the tested form may be a part): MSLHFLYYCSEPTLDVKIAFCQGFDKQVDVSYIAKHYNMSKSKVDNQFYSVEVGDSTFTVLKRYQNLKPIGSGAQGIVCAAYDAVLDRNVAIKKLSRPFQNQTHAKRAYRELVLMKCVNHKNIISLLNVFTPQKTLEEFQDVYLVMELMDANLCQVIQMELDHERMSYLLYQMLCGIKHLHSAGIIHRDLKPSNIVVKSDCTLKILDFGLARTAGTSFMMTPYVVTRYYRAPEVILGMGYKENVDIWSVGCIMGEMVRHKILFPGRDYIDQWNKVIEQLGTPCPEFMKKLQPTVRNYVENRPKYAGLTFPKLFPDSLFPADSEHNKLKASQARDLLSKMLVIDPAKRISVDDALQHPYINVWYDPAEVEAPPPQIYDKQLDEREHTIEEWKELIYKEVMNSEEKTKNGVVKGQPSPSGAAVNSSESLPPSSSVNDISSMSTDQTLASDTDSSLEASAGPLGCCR
Sequence of Paired box protein Pax-8 (Q06710 whole entry): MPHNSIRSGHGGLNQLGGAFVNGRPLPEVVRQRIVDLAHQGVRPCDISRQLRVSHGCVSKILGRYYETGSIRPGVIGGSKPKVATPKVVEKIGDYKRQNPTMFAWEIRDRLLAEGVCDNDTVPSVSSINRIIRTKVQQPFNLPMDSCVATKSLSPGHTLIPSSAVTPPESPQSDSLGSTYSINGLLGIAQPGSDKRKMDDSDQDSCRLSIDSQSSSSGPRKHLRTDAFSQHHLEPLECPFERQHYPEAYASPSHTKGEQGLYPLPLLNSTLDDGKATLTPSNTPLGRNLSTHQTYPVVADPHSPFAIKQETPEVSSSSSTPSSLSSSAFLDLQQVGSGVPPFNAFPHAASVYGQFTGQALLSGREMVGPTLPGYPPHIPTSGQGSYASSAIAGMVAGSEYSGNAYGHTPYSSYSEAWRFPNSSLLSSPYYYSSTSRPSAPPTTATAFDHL

The IC50 is the midpoint of a concentration-inhibition curve. Take `Cc1cc(C)c2sc(NNC(=O)C3COc4ccccc4O3)nc2c1` (stereo not given): the IC50 in test [1] is 26.2 µM (inactive).

The EC50 is the concentration giving half of the maximal effect. Turning to `CCC(C)NCCOc1ccc(C)cc1[N+](=O)[O-]` (stereo not given), the half-maximal effective concentration (EC50) in test [2] and in test [3] was > 350 µM (not active) throughout. The IC50 in test [4] is on record as > 50 µM (not active).

The term AC50 denotes the concentration giving half of the maximal activity seen. Consider `Cc1cccc(-c2nc(NCCCN(C)C)c3ccccc3n2)c1`, for which the concentration at half-maximal activity (AC50) in test [5] is 21.4 µM (active); in test [6], 9.69 µM (active).

As to `COC(=O)c1ccccc1NC(=O)COC(=O)c1ccco1`, the concentration for half-maximal inhibition (IC50) in [7] was 56.7 µM (not active).

Consider `FC(F)(F)c1cnc(NN=C(S)Nc2cccnc2)c(Cl)c1`, for which the IC50 in [1] is > 122 µM (inactive).

`COc1ccc(COC(=O)C2=C(C)NC(=O)NC2c2ccc(O)c(OC)c2)cc1` (stereo not given): the IC50 in test [7] is 33.8 µM (not active).

For `COc1ccc(-n2cc(-c3ccccc3)nc2S)cc1`, in test [1], the IC50 is > 122 µM (inactive).

With `COc1ccc(CCC(C)NCc2ccc(Cl)c(Cl)c2)cc1` (stereo not given), the concentration at half-maximal activity (AC50) was 5.33 µM (active) in test [8]; 59.6 µM (active) in test [9]; 7.63 µM (active) in [10]; 8.87 µM (active) in [11]; 6.23 µM (active) in test [12].

As to `CC(C)(C)C(=O)N1CCN(c2ccc(Cl)cc2[N+](=O)[O-])CC1`, the IC50 in [13] is > 109 µM (inactive); in test [14], > 83.3 µM (inactive).

Turning to `CC(C)Oc1ccc(C2CC(=O)N(c3cccc(C(=O)O)c3)C2=O)cc1` (stereo not given), the IC50 in test [13] is > 109 µM (inactive); in [14], > 83.3 µM (inactive).

Turning to `CCOc1ccccc1NC(=O)COc1cccc(-n2cnnn2)c1`, the half-inhibitory concentration (IC50) in [7] is 69.2 µM (not active).

As for `O=C(NC(Cc1ccc(O)cc1)C(=O)O)c1ccco1` (stereo not given), the IC50 in [13] was > 109 µM (inactive); in test [14], > 83.3 µM (inactive).

Take `c1cc2cc(CNc3nc(NCC4CC4)nc4ccsc34)ccc2o1`: the AC50 in [8] was 4.73 µM (active); in test [9] it was 35.9 µM (active); in test [10], 33.1 µM (active); in test [11], 8.05 µM (active); in test [12], 22.5 µM (active).

`Oc1ccc2c3c1O[C@H]1c4[nH]c5c(c4CC4(O)C(C2)N(CC2CC2)CCC314)CC1(O)[C@H]2Cc3ccc(O)c4c3[C@@]1(CCN2CC1CC1)C5O4` (stereo not given in full): the half-maximal activity concentration (AC50) in test [6] is 11.1 µM (active).

Take `O=C(c1ccccc1)n1nc(-c2ccccc2)nc1NCc1ccco1`: the IC50 in test [4] is 1.72 µM (active).

Usually CC50 stands for the concentration at which the toxic effect on the cells reaches its halfway point. On to `CCc1cccc2c1Sc1ccccc1CC2N1CCNCC1` (stereo not given), for which, in test [15], the half-maximal cytotoxic concentration (CC50) is 13 µM (active). Besides, the EC50 in [16] is > 120 µM (not active); in test [17] it was > 120 µM (not active); in [18] it was > 120 µM (not active); in test [19] it was 3.99 µM (active); in test [20], 9.15 µM (active). Further, in test [6], the half-maximal activity concentration (AC50) was 18 µM (active).

`CC1CCCC(C)N1CCCNC(=O)c1nn(C)c2c1CSc1ccccc1-2` (stereo not given): the AC50 in [11] was > 70 µM (inactive).

As for `COc1c(C=O)c2c(c(OC)c1OC)-c1ccc(OC)c(=O)cc1C(NC(C)=O)CC2` (stereo not given), the IC50 in test [21] and in test [22] was > 67.5 µM (inactive) throughout. The AC50 in test [23] was < 260 nM (active).
